Test results as given in US10231954B2, “Neurodegenerative therapies” (LYTIX BIOPHARMA AS, priority 2014, dated 2019).

Experiments:
Assay type in all cases: biochemical
[1] = molecular target: PKBa (Homo sapiens, UniProt P31749); assay: Kinase profiling PKBa; settings: for residual kinase activity, PKBa: 100 micromolar inhibitor concentration, 100 is no change
From the text: (§1) Any value less that 25 is considered to be highly significant inhibition.

[2] = molecular target: PKCγ (Homo sapiens, UniProt P05129); assay: Kinase profiling PKCγ; settings: 100 micromolar inhibitor concentration, 100 is no change
From the text: as §1

[3] = molecular target: STK33 (Homo sapiens, UniProt Q9BYT3); assay: Kinase profiling STK33; settings: 100 micromolar inhibitor concentration, 100 is no change
Chain of STK33 (Q9BYT3 whole entry, species assumed): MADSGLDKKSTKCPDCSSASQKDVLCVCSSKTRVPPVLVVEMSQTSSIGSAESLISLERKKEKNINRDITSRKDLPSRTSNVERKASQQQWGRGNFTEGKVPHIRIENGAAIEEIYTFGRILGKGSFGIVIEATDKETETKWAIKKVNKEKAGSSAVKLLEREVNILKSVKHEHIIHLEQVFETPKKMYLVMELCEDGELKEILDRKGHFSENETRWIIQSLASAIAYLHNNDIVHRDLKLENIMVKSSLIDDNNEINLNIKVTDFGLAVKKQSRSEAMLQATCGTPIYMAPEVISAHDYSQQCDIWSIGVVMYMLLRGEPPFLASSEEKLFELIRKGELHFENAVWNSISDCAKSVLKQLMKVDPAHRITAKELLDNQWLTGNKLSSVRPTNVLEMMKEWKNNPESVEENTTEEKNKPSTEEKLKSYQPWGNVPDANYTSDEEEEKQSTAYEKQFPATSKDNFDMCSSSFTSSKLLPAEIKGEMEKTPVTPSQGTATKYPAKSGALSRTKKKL
From the text: as §1

[4] = molecular target: MSK1 (Homo sapiens, UniProt O75582); assay: Kinase profiling MSK1; settings: 100 micromolar inhibitor concentration, 100 is no change
Chain of MSK1 (O75582 whole entry, species assumed): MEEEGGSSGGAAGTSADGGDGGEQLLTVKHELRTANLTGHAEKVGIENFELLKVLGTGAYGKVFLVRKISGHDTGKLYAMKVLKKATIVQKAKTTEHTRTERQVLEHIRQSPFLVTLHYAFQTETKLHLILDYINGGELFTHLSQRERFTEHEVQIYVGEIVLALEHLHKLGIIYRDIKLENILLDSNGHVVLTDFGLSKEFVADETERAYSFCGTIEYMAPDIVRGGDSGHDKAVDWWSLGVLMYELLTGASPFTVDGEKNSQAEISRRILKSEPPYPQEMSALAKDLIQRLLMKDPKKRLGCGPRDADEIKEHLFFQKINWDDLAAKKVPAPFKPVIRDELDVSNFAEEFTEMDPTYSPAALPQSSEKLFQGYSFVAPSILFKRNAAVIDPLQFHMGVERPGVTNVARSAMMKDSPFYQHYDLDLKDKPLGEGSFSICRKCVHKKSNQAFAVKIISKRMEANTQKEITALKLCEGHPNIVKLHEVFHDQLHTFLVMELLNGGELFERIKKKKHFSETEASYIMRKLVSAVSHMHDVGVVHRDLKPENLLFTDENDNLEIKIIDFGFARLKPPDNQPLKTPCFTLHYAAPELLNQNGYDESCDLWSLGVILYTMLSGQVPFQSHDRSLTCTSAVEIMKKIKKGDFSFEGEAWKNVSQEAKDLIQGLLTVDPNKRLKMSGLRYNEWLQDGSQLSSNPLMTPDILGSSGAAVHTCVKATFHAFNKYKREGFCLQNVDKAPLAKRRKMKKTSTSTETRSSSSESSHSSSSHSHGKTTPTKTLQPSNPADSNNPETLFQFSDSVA
From the text: as §1

[5] = molecular target: CAMKKb (Homo sapiens, UniProt Q96RR4); assay: Kinase profiling CAMKKb; settings: 100 micromolar inhibitor concentration, 100 is no change
Chain of CAMKKb (Q96RR4 whole entry, species assumed): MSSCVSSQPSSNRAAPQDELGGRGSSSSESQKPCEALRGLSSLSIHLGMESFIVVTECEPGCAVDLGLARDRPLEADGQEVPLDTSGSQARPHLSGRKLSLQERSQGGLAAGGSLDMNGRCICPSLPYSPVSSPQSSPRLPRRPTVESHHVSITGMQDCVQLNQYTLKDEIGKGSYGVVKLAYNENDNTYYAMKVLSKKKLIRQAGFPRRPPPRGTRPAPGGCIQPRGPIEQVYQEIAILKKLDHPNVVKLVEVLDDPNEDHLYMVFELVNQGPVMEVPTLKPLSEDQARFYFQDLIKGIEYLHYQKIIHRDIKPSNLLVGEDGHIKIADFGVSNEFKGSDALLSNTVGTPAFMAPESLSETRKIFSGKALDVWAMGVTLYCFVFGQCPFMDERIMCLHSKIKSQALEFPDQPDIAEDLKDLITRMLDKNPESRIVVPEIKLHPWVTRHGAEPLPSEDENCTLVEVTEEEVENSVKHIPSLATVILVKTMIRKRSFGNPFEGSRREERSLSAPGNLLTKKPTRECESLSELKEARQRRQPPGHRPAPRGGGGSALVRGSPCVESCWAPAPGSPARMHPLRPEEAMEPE
From the text: as §1

[6] = molecular target: T1, LKB1 (Homo sapiens, UniProt Q15831); assay: Kinase profiling LKB1; settings: 100 micromolar inhibitor concentration, 100 is no change
T1 sequence (Q15831 1-433): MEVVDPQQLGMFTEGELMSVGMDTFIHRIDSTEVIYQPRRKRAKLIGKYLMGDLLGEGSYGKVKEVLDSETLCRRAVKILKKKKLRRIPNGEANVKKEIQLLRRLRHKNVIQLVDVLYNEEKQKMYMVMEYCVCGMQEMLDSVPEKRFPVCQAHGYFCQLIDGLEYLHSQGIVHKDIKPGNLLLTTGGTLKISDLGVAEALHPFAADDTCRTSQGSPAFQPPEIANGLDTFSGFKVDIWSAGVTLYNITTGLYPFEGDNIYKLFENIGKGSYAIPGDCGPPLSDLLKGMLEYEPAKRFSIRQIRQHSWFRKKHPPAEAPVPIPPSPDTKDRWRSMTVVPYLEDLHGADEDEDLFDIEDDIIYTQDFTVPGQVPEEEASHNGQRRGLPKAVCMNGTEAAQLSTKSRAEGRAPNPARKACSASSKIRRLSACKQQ
T1 sequence (Q7RTN6 1-431 partner): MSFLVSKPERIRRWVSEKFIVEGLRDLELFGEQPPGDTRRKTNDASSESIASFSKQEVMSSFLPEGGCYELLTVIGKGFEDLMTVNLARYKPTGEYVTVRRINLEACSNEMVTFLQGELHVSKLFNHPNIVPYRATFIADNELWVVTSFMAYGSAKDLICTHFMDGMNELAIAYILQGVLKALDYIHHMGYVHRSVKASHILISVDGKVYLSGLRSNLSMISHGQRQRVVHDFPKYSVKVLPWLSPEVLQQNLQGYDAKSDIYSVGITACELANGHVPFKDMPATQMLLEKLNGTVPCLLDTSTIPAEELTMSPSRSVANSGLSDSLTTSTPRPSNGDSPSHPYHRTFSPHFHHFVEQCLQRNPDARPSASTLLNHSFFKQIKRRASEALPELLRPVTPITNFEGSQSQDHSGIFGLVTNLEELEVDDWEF
T1 sequence (Q9Y376 1-341 partner): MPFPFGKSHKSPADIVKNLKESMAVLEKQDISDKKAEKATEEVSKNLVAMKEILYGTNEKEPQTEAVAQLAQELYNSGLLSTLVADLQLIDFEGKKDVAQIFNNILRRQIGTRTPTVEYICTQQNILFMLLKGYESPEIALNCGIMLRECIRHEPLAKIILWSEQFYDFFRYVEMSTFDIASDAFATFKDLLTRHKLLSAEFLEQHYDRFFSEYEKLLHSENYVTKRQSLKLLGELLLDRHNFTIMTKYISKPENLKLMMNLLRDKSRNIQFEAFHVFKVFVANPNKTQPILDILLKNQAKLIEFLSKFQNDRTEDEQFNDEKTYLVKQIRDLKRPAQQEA
From the text: as §1

[7] = molecular target: T2, TBK1 (Homo sapiens, UniProt Q9UHD2); assay: Kinase profiling TBK1; settings: 100 micromolar inhibitor concentration, 100 is no change
T2 sequence (Q9UHD2 1-729): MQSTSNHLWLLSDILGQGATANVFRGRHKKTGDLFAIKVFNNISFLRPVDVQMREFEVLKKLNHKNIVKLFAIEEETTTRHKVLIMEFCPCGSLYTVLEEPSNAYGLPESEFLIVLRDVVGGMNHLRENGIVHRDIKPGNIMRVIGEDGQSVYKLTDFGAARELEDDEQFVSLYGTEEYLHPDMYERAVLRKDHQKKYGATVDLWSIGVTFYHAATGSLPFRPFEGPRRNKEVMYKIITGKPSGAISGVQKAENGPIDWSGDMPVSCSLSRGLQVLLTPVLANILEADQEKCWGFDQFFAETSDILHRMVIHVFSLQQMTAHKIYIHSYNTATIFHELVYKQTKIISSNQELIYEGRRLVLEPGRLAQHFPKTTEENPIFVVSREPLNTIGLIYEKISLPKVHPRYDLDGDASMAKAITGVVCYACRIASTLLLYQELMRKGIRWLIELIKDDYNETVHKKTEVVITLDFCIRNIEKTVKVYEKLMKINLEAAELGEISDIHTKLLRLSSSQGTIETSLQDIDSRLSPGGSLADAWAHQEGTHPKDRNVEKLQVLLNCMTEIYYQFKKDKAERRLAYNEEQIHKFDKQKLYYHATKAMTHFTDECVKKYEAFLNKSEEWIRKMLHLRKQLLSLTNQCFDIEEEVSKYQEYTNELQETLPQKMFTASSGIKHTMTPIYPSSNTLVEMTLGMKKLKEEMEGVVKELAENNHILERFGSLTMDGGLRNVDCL
From the text: as §1

[8] = molecular target: SRPK1 (Homo sapiens, UniProt Q96SB4); assay: Kinase profiling SRPK1; settings: 100 micromolar inhibitor concentration, 100 is no change
Chain of SRPK1 (Q96SB4 whole entry, species assumed): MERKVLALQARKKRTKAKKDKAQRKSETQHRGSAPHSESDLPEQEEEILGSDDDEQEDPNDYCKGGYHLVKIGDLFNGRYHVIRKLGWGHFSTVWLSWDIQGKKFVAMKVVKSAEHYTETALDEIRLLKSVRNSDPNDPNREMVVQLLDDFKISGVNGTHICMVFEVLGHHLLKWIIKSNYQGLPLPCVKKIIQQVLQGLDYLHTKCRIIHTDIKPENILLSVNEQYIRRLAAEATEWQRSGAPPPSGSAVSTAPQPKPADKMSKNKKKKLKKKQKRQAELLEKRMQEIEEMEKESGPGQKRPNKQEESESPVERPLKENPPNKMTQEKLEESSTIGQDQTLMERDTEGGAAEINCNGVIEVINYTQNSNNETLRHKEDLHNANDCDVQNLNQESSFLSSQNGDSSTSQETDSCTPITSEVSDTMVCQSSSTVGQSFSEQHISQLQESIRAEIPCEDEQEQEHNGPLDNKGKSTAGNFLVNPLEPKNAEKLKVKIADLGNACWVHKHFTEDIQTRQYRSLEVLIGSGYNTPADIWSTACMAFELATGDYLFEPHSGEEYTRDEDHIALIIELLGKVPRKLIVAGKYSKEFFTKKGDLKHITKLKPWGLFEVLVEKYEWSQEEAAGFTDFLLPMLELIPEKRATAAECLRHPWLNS
From the text: as §1

[9] = molecular target: EF2K (Homo sapiens, UniProt O00418); assay: Kinase profiling EF2K; settings: 100 micromolar inhibitor concentration, 100 is no change
From the text: as §1

[10] = molecular target: T3, MST2 (Homo sapiens, UniProt Q13188); assay: Kinase profiling MST2; settings: 100 micromolar inhibitor concentration, 100 is no change
T3 sequence (Q13188 1-491): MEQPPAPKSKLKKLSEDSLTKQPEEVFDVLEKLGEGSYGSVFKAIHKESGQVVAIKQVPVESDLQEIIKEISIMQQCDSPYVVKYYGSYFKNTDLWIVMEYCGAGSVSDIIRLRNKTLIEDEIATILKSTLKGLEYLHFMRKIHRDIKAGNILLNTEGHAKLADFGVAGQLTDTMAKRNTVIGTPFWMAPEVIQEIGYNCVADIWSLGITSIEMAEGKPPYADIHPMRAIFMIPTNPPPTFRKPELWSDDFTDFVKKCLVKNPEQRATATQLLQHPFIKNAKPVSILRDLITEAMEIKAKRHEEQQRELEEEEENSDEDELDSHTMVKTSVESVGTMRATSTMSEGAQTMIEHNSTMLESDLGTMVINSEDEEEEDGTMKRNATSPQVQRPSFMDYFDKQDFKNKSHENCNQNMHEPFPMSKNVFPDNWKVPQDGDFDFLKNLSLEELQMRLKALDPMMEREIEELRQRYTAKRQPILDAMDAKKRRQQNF
From the text: as §1

[11] = molecular target: SYK (Homo sapiens, UniProt P43405); assay: Kinase profiling SYK; settings: 100 micromolar inhibitor concentration, 100 is no change
From the text: as §1

Chain of PKBa (P31749 whole entry): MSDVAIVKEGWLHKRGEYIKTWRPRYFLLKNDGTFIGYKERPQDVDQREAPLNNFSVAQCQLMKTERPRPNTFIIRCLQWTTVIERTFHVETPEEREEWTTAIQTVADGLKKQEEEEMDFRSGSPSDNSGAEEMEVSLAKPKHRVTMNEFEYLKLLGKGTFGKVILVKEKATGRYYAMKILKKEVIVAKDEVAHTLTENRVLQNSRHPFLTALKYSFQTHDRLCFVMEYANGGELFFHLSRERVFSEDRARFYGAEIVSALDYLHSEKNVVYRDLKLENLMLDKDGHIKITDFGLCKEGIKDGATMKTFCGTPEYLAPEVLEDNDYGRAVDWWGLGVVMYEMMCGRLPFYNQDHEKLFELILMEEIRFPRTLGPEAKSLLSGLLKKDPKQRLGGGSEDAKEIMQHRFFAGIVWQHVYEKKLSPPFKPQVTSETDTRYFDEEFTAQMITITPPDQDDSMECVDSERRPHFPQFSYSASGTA

With `CC(=O)Nc1nc2cc(C)ccc2s1` [Compound 03-76] the “residual kinase activity, PKBa” value [1] was 104, the “residual kinase activity, PKCγ” value [2] was 106 and the “residual kinase activity, STK33” value [3] was 80. The “residual kinase activity, MSK1” value [4] was 84, the “residual kinase activity, CAMKKb” value [5] was 71 and the “residual kinase activity, LKB1” value [6] was 96. For the same molecule, the “residual kinase activity, TBK1” value [7] was 78, the “residual kinase activity, SRPK1” value [8] was 73 and the “residual kinase activity, EF2K” value [9] was 110. For the same molecule, the “residual kinase activity, MST2” value [10] was 75 and the “residual kinase activity, SYK” value [11] was 72.

`CC(=O)Nc1nc2cc(F)ccc2s1` [Compound 03-77] was tested, and the remaining activity at 100 µM ([1]; read-out: residual kinase activity, PKBa) was 95%, the remaining activity at 100 µM ([2]; read-out: residual kinase activity, PKCγ) was 102% and the remaining activity at 100 µM ([3]; read-out: residual kinase activity, STK33) was 70%. The remaining activity at 100 µM ([4]; read-out: residual kinase activity, MSK1) was 74%, the remaining activity at 100 µM ([5]; read-out: residual kinase activity, CAMKKb) was 74% and the remaining activity at 100 µM ([6]; read-out: residual kinase activity, LKB1) was 85%. For the same molecule, the remaining activity at 100 µM ([7]; read-out: residual kinase activity, TBK1) was 74%, the remaining activity at 100 µM ([8]; read-out: residual kinase activity, SRPK1) was 65% and the remaining activity at 100 µM ([9]; read-out: residual kinase activity, EF2K) was 99%. It also gave a remaining activity at 100 µM ([10]; read-out: residual kinase activity, MST2) of 80% and a remaining activity at 100 µM ([11]; read-out: residual kinase activity, SYK) of 82%.

In the case of `O=C(Nc1nc2ccc(O)cc2s1)c1ccncc1` [Compound 08-42], the “residual kinase activity, PKBa” value [1] is reported as 90, the “residual kinase activity, PKCγ” value [2] is reported as 93 and the “residual kinase activity, STK33” value [3] is reported as 67. The “residual kinase activity, MSK1” value [4] was 92, the “residual kinase activity, CAMKKb” value [5] was 68 and the “residual kinase activity, LKB1” value [6] was 65. For the same molecule, the “residual kinase activity, TBK1” value [7] was 61, the “residual kinase activity, SRPK1” value [8] was 19 and the “residual kinase activity, EF2K” value [9] was 79. The “residual kinase activity, MST2” value [10] was 55 and the “residual kinase activity, SYK” value [11] was 90.

In the case of `O=C(Nc1nc2ccc(O)cc2s1)c1cccnc1` [Compound 08-44], the “residual kinase activity, PKBa” value [1] is reported as 83, the “residual kinase activity, PKCγ” value [2] is reported as 73 and the “residual kinase activity, STK33” value [3] is reported as 57. For the same molecule, the “residual kinase activity, MSK1” value [4] was 49, the “residual kinase activity, CAMKKb” value [5] was 59 and the “residual kinase activity, LKB1” value [6] was 45. The “residual kinase activity, TBK1” value [7] was 81, the “residual kinase activity, SRPK1” value [8] was 16 and the “residual kinase activity, EF2K” value [9] was 67. For the same molecule, the “residual kinase activity, MST2” value [10] was 57 and the “residual kinase activity, SYK” value [11] was 71.
